Where two headings read alike, the source gives them in different places.
Legend:
[1] = system: C57BL/6 mice; assay: Head-twitch response (HTR); type: in vivo, mouse; conditions: i.p.
Experimental: C57BL/6 mice were treated with increasing doses of compounds as indicated via i.p. injection. Mice were placed inside a clear cylinder and video recorded for 10 min immediately after compound administration. Head-twitch was recorded by an individual blinded to treatment as a lateral, rhythmic shaking of the head distinct from grooming or vertical head nod. Data were plotted in GraphPad (v. 9). n≥3 animals per dose. Data are expressed as mean±SEM.

[2] = target: T1, h5HT2a (Homo sapiens, UniProt P28223); assay: cell-based; type: cell-based; set-up: expressed in transfected cells; host or cells: CHO-K1
Experimental: Compound activity was quantified as βarrestin2 recruitment from CHO-K1 cells expressing h5HT2a and treated with 0.1 nM-10 μM compounds.
CHO-K1 cells express h5HT2a-smBIT and βarrestin2-lgBiT fusion proteins. When h5HT2a and βarrestin2 come into contact with one another the smBIT and IgBIT peptides complement each other to produce a complete NanoBit luciferase enzyme. When complete, the enzyme is able to catalyze the breakdown of the molecule coelenterazine to produce light. Emitted light levels are proportional to interactions between h5HT2a and βarrestin2. CHO-K1 cells were treated with between 0.1 nM-10 μM of each compound for 2 h, during which period chemiluminescence is recorded. Area under the curve data for cumulative chemiluminescence are then fit to a three-parameter non-linear regression to determine potency (EC50) and efficacy (Emax). Data were fit to a three-parameter non-linear regression in GraphPad (v. 9). n=3-13 independent experiments performed in duplicate or triplicate. Data are expressed as mean±SEM.

[3] = target: T1, h5HT2a; assay: cell-based; type: cell-based; set-up: expressed in transfected cells; host or cells: CHO-K1 (AequoScreen line with aequorin in A1; membranes of stably expressing CHO-K1 cells in A3)
Experimental: AequoScreen CHO-K1 cells stably-expressing h5HT2a contain an aequorin protein that, when bound to Ca^2+, is able to catalyze the breakdown of the molecule coelenterazine to produce light. Emitted light levels are proportional to endoplasmic reticulum Ca^2+ release. CHO-K1 cells were treated with between 0.1 nM-10 μM of each compound for 1 min before chemiluminescence is recorded. Resulting data are then fit to a three parameter non-linear regression to determine potency (EC50) and efficacy (Emax). Data were fit to a three-parameter non-linear regression in GraphPad (v. 9). n=3-29 independent experiments performed in duplicate or triplicate. Data are expressed as mean±SEM.

[4] = Dynamic vapor sorption (DVS) analysis; type: physicochemical
Experimental: Moisture sorption isotherms were collected on a DVS Adventure system from Surface Measurement Systems (London, UK). Sample size was circa 10 mg of solid material. A full sorption and desorption isotherm was recorded by varying the relative humidity from 40-95-0-40% in steps of 10% at a constant temperature of 25° C. Weight equilibration per step was set at dm/dt of 0.002%/min. Afterwards the sample was measured by HT-XRPD.

[5] = system: C57BL/6 mice; assay: Nociception, tail flick latency test (52° C. water); type: in vivo, mouse; conditions: i.p., increasing doses, 15 min after administration
Experimental: (§1) Compound activity was quantified in C57BL/6 mice for catalepsy (10 min) (top), nociception in the tail flick latency test (15 min) (middle), and body temperature relative to baseline (20 min) (bottom).
(§2) C57BL/6 mice were treated with increasing doses of compounds as indicated via i.p. injection. Tests were as follows: Body temperature is taken before administration of the first dose of compound for baseline. Catalepsy—the bar holding assay, 10 min after compound administration. Mice are placed such that their forepaws clasp a 0.7 cm ring clamp positioned 4.5 cm above the surface of the testing space. The length of time the ring is held is recorded (sec). The trial is ended if the mouse turns its head or body, or makes 3 consecutive escape attempts, to a maximum of 60 sec. Nociception—15 min after compound administration the mouse's tail is placed in 52° C. water. Latency to remove the tail from water is recorded to a maximum of 20 sec. Body temperature—rectal thermometer 20 min after compound administration. Data were plotted in GraphPad (v. 9). n≥6 animals per dose. Data are expressed as mean±SEM.

[6] = system: C57BL/6 mice; assay: Elevated plus maze (EPM); type: in vivo, mouse; conditions: 3 mg/kg i.p., 30 min, preliminary
Experimental: Representative movement traces from Ethovision in male C57BL/6 mice (top, right).
C57BL/6 mice were treated 3 mg/kg of compounds via i.p. injection. Mice are placed in the EPM 30 min after compound administration. The EPM measures 1 m×1 m and the test lasts for 5 min. Total distance travelled, velocity, arm entries, and time in each arm are recorded and analyzed using EthoVision XT (Noldus, v. 17). Data were plotted in GraphPad (v. 9). n=3-5 animals per treatment. Data are expressed as mean±SEM.

[7] = system: C57BL/6 mice; assay: Open field task (OFT); type: in vivo, mouse; conditions: i.p., 30 min after administration; significant for movement and velocity, not time in center, at 7 or 10 mg/kg
Experimental: C57BL/6 mice were treated with increasing doses of compounds as indicated via i.p. injection. Mice are placed in the open field 30 min after compound administration. The open field measures 1 m×1 m and the test lasts for 5 min. Total distance travelled, velocity, and time spent in the central quadrant of the field are recorded and analyzed using Etho Vision XT (Noldus, v. 17). Data were plotted in GraphPad (v. 9). n≥4 animals per dose. Data are expressed as mean±SEM.

[8] = system: C57BL/6 mice; assay: Body temperature relative to baseline (rectal thermometer); type: in vivo, mouse; conditions: i.p., increasing doses, 20 min after administration
Experimental: as §1, §2

[9] = system: C57BL/6 mice; assay: Catalepsy, bar holding assay; type: in vivo, mouse; conditions: i.p., increasing doses, 10 min after administration
Experimental: as §1, §2

[10] = target: T1, h5HT2a; assay: biochemical; type: binding; set-up: expressed in transfected cells; host or cells: CHO-K1 (AequoScreen line with aequorin in A1; membranes of stably expressing CHO-K1 cells in A3); conditions: 1 nM [3H]ketanserin, 0.1 nM-10 μM compound, 2 h
Experimental: CHO-K1 cells stably-expressing h5HT2a are grown, collected, and frozen at −80° C. Cells are thawed as needed and subjected to pressure cavitation using a Dounce homogenizer to rupture cell membranes. Cell membranes are then collected by subjecting cell lysates to high-speed centrifugation at 20,000×g for 30 min at 4° C. Homogenization and centrifugation are repeated to enrich the sample for receptor-containing cell membranes. CHO-K1 cell membranes are the co-incubated with 1 nM [^3H]ketanserin and between 0.1 nM-10 μM of each compound for 2 h. Samples are then pipetted onto filter paper before being rinsed and washed by vacuum filtration three times, dried, and incubated overnight in scintillation fluid. […] Resulting data are then fit to a three-parameter non-linear regression to determine affinity (Ki). […] Data are expressed as mean±SEM.

[11] = βarrestin2 recruitment, CHO-K1 h5HT2a

T1 sequence (P28223 whole entry): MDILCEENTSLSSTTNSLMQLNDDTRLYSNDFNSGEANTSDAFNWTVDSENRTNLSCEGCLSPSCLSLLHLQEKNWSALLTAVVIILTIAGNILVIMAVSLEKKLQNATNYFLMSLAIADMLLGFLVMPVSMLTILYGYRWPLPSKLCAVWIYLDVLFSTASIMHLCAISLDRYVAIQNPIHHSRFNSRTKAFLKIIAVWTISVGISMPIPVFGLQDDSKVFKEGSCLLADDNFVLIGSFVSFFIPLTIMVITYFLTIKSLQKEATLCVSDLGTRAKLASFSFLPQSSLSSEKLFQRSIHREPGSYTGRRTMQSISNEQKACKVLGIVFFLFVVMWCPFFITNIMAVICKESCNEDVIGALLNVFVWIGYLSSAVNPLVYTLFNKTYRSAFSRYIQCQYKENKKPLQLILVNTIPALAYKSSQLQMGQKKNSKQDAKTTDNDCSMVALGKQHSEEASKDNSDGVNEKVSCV

CCN(CC)C(=O)[C@@H]1C=C2c3cccc4[nH]cc(c34)C[C@H]2N(C)C1 [LSD]
time of peak head-twitch effect post-compound administration ([1]; at several tested doses): around 7 min
Emax (%) ± S.E.M. [2]: 100 ± 16%
Emax (%) ± S.E.M. [3]: 100 ± 9.9%

CCc1cc(/C(C)=N/OCc2ccc(C3CCCCC3)c(C(F)(F)F)c2)ccc1CN1CC(C(=O)O)C1.CCc1cc(/C(C)=N/OCc2ccc(C3CCCCC3)c(C(F)(F)F)c2)ccc1CN1CC(C(=O)O)C1.O=C(O)/C=C/C(=O)O [Crystalline Form A]
hygroscopicity according to the EP hygroscopicity classification ([4]; DVS, 25° C.): moderately hygroscopic
total mass difference between 0-95% RH ([4]; DVS, 25° C.): 3.6%
physical stability after the sorption-desorption cycle (XRPD) ([4]; solid recovered after DVS): physically stable

CNCCc1c[nH]c2cccc(O)c12 [Norpsilocin]
Emax (%) ± S.E.M. [2, 11]: 2.9 ± 27%
Emax (%) ± S.E.M. ([3]; Ca2+ release, CHO-K1 h5HT2a): 45 ± 14%

CN(C)CCc1c[nH]c2cccc(O)c12 [Psilocin]
pain perception (nociception) [5]: significantly reduces pain perception peaking at 1 mg/kg
closed arm time ([6]; p=0.029, unpaired t-test): significantly reduces closed arm time
open arm time ([6]; p=0.12, unpaired t-test): but not open arm time
arm entries [6]: no significant differences in arm entries
overall movement and velocity in EPM [6]: trend toward reduced overall movement and velocity
head-twitch response ([1]; 0-10 min after administration): time-dependent head-twitch response
potency in Ca2+ release assay compared with βarrestin2 recruitment assay ([2]; comparison of the two h5HT2a assays): greater in the Ca^2+ release assay than the βarrestin2 recruitment assay
βarrestin2 recruitment activity (in words) ([2]; h5HT2a-dependent βarrestin2 recruitment): activator of βarrestin2 recruitment
Emax [2, 11]: 89 ± 22%
movement, velocity and time in the center of the open field [7]: dose-dependent decrease in movement, velocity, and time in the center of the open field
body temperature [8]: dose-dependent hypothermia
Emax ([3]; Ca2+ release, CHO-K1 h5HT2a): 89 ± 11%
Ca2+ release activity (in words) ([3]; h5HT2a-dependent Ca2+ release): potent activator of Ca^2+ release
catalepsy [9]: do not produce catalepsy

CN(C)CCc1c[nH]c2cccc(OP(=O)(O)O)c12 [Psilocybin]
Ki [10]: 390 nM
Emax [2, 11]: -34 ± 5.9%
pEC50 ± S.E.M. ([2]; βarrestin2 recruitment, CHO-K1 h5HT2a, 0.1 nM-10 μM, 2 h, AUC): Not Converged
Emax ([3]; Ca2+ release, CHO-K1 h5HT2a): 69 ± 15%
EC50 ([3]; Ca2+ release, CHO-K1 h5HT2a, 0.1 nM-10 μM, 1 min): 1500 nM
catalepsy [9]: do not produce catalepsy

Source: patent publication US20250375420A1 (ZYLORION HEALTH INC., priority 2022, published 2025)
